{"source": "paper PMC10976043", "about": "“Function and Mechanism of Antiviral Wasp Venom Peptide Protopolybia-MP III and Its Derivatives against HSV-1” (Toxins, 2024)", "key": {"HSV-1": {"test_system": "HSV-1", "assay": "Plaque formation assay of extracellular HSV-1 particles", "assay_type": "cell-based, herpes simplex virus type 1", "settings": "supernatant in plaque formation assay", "description": "(§1) (A) Amino acid sequence of Protopolybia-MP III. Basic residues are labeled blue, and acidic residues are labeled red. (B,C) Suppression of intracellular HSV-1 infection by Protopolybia-MP III. Cells were preincubated with Protopolybia-MP III at different concentrations or PBS for 1 h and then infected with HSV-1 at a multiplicity of infection (MOI) of 1. After 24 h, the cells were collected. Intracellular HSV-1 RNA was analyzed by qPCR (B), and intracellular HSV-1 ICP0 protein levels were analyzed by Western blotting (C). (D) Suppression of Protopolybia-MP III on extracellular HSV-1 particles. Cells were treated with Protopolybia-MP III at different concentrations or PBS for 24 h, and then the supernatant was collected and evaluated in a plaque formation assay. (E) Cytotoxicity of Protopolybia-MP III to Vero cells. Cells were treated with Protopolybia-MP III or PBS at different concentrations for 24 h, and then the cytotoxicity was determined by CCK8 assay. * p < 0.05. ** p < 0.01. *** p < 0.001.\n(§2) Figure 2 Protopolybia-MP III inhibits HSV-1 replication in human cell lines. (A) Cytotoxicities of Protopolybia-MP III to A549 cells, HCEC, and SK-N-MC. Cells were treated with Protopolybia-MP III at different concentrations or PBS for 24 h, and then cytotoxicities were determined by the CCK8 assay. (B,C) Suppression of intracellular HSV-1 infection by Protopolybia-MP III in A549 cells, HCEC, and SK-N-MC. Cells were preincubated with Protopolybia-MP III at different concentrations or PBS for 1 h and then infected with HSV-1 at an MOI of 1. After 24 h, the cells were collected. Intracellular HSV-1 RNA was analyzed by qPCR (B), and intracellular HSV-1 ICP0 protein expression levels were analyzed by Western blotting (C). (D) Inhibition of Protopolybia-MP III on extracellular HSV-1 particles in A549 cells, HCEC, and SK-N-MC. Cells were treated with Protopolybia-MP III at different concentrations or PBS for 24 h, and then the supernatant was collected and evaluated in a plaque formation assay. * p < 0.05. ** p < 0.01. *** p < 0.001.\nVero cells seeded in a 24-well plate at 100% confluence were infected with virus diluent or supernatant. After 1 h of absorption at 37 °C, the supernatant was removed. Cells were washed three times with PBS and replenished with a plaque-covering layer (MEM with 2% FBS and 1.5% carboxymethylcellulose). After an incubation period of approximately 3 days, the cells were stained with 1% crystal violet containing 10% methanol for 0.5 h. Then, the plaques were counted, and the viral titer was calculated according to the plaque number and dilution."}, "A549 cells": {"test_system": "A549 cells", "assay": "CCK8 cytotoxicity assay, A549 cells", "assay_type": "cell-based, human", "settings": "40 μg/mL, 24 h", "description": "as §2\n(§3) Cells were seeded in a 96-well plate (7000–10,000 cells per well) and cultured at 37 °C overnight. Peptides in a series of concentrations were added to the medium, and cells were then incubated at 37 °C for 24 h. […] Finally, the absorbance was measured at 450 nm using a microplate reader (BioTek, Winooski, VT, USA)."}, "HSV-1 ICP0": {"test_system": "HSV-1 ICP0", "assay_type": "cell-based, herpes simplex virus type 1", "settings": "for effect on intracellular HSV-1 ICP0 expression level: HSV-1 MOI 1, 24 h, Western blotting; for inhibition rate on intracellular HSV-1 ICP0 expression level: ICP0, 24 h", "description": "as §1, §2\nFigure 7 Antiviral activity analysis of Protopolybia-MP III mutants. (A) Amino acid sequences of Protopolybia-MP III mutants. Identical amino acids among Protopolybia-MP I, Protopolybia-MP III, and its mutants are marked in blue, and different amino acids are marked in red. (B) Suppression of Protopolybia-MP I, Protopolybia-MP III, and its mutants on intracellular HSV-1 content. Cells were preincubated with 20 μg/mL peptides or PBS for 1 h and then infected with HSV-1 at an MOI of 1. After 24 h, the cells were collected. Intracellular HSV-1 ICP0 protein levels were analyzed by Western blotting. The ratios of HSV-1 ICP0 to GAPDH were calculated by ImageJ software. (C) Inhibition of HSV-1 free virion infectivity by Protopolybia-MP I, Protopolybia-MP III, and its mutants. HSV-1 (MOI = 1) and 5 μg/mL peptides or PBS were coincubated at 37 °C for 1 h, and the mixtures were then used to infect Vero cells. After 24 h, cells were collected, and intracellular HSV-1 RNA was analyzed by qPCR. ns, no significance. * p < 0.05. ** p < 0.01. *** p < 0.001.\nHSV-1 was kindly provided by Professor Zhijian Cao of Wuhan University. Cells were infected with HSV-1 at an MOI of 1 for 24 h. Then, cells were collected for qPCR, Western blotting, and immunofluorescence assays, and the extracellular supernatant was used for plaque formation assays.\nCells were collected and lysed in 1% SDS. The cell lysate was heated at 100 °C for 20 min and centrifuged at 12,000 rpm at 4 °C for 15 min, and then the supernatant was collected and assayed with a BCA Protein Quantification Kit (Vazyme). Equal amounts of protein were separated using a PAGE Gel Fast Preparation Kit (10%) (Epizyme Biotech, Wuhan, China) and transferred to nitrocellulose (NC) membranes (Millipore, Wuhan, China). […]"}, "[1]": {"test_system": "human neuroepithelial cells (SK-N-MC)", "assay": "CCK8 cytotoxicity assay, SK-N-MC", "assay_type": "cell-based", "settings": "40 μg/mL, 24 h", "description": "as §2, §3"}, "Vero cells": {"test_system": "Vero cells", "assay": "CCK8 cytotoxicity assay, Vero cells", "assay_type": "cell-based, monkey", "settings": "40 μg/mL, 24 h", "description": "as §1, §3"}}, "note": "Like-named read-outs stand apart in the source and are kept apart here. Ends that are not written are not given here.", "data": [{"substance": "INWLKLGKAVIDAL-NH2 [Protopolybia-MP III]", "values": [{"measurement": "extracellular HSV-1 level versus PBS", "setting": "HSV-1; A549 cells treated 24 h", "result": "lower"}, {"measurement": "extracellular HSV-1 level versus PBS", "setting": "HSV-1; HCEC treated 24 h", "result": "lower"}, {"measurement": "extracellular HSV-1 level versus PBS", "setting": "HSV-1; SK-N-MC treated 24 h", "result": "lower"}, {"measurement": "extracellular HSV-1 particles (plaques)", "setting": "HSV-1; Vero cells treated 24 h", "result": "fewer plaques"}, {"measurement": "cytotoxicity to A549 cells", "setting": "A549 cells", "result": "almost nontoxic"}, {"measurement": "effect on intracellular HSV-1 ICP0 expression level", "setting": "HSV-1 ICP0; A549 cells", "result": "strongly inhibited"}, {"measurement": "effect on intracellular HSV-1 ICP0 expression level", "setting": "HSV-1 ICP0; HCEC", "result": "strongly inhibited"}, {"measurement": "inhibition rate on intracellular HSV-1 ICP0 expression level", "setting": "HSV-1 ICP0; 5 μg/mL", "result": 67, "unit": "%"}, {"measurement": "inhibition rate on intracellular HSV-1 ICP0 expression level", "setting": "HSV-1 ICP0; 10 μg/mL", "result": 74, "unit": "%"}, {"measurement": "inhibition rate on intracellular HSV-1 ICP0 expression level", "setting": "HSV-1 ICP0; 20 μg/mL", "result": 96, "unit": "%"}, {"measurement": "effect on intracellular HSV-1 ICP0 expression level", "setting": "HSV-1 ICP0; SK-N-MC", "result": "strongly inhibited"}, {"measurement": "cytotoxicity to SK-N-MC", "setting": "[1]", "result": "almost nontoxic"}, {"measurement": "cytotoxicity to Vero cells", "setting": "Vero cells", "result": "almost nontoxic"}]}]}
